Data reported in patent EP2070529B1, “Medical use of 3-(2,2,2-trimethylhydrazinium) propionate orotate” (Grindeks, a joint stock company, priority 2007, dated 2009).
Where “and” joins values, the source holds several entries; their conditions need not be identical. Identical values can stand only once. Marks after values point to notes of the source that are not given here.

Columns and labels:
rats = experiment: Acute arrhythmia induced by calcium chloride, lethality; assay type: in vivo, Wistar rats; details: deaths/rats per group (8 rats), p.o. 14 days (Meldonium dihydrate 120 mg/kg, Meldonium orotate 204 mg/kg), last dose 24 h before, CaCl2 185 mg/kg, ECG until 10 minutes after
Description: Experiment was conducted on adult male Wistar rats. During the experiment, the animals were kept in Standard crates in groups of 8. The feed was a standardized diet R3 (LABFOR, Lactamin AB, Sweden). The room temperature was kept at 21-23°C, relative humidity at 65±10%, 12 hour light/darkness cycle. The experimental procedures were carried out in accordance with the guidelines of the European Community and local laws and policies and were approved by Latvian Animal Protection Ethical Committee, the Food and Veterinary Service.
An experimental acute arrhythmia was caused by introducing in rats solution of Calcium chloride.
Rats weighing 240-250 g randomized were divided into 3 groups, where in all groups there were 8 rats. During all 14 days rats got experimental preparations: Meldonium dihydrate or Meldonium orotate. The first group of 8 rats received drinking water (control group), the second group of 8 rats received Meldonium dihydrate (120 mg/kg p.o.) and the third group of 8 rats received Meldonium orotate (204 mg/kg p.o.). The last dose of experimental preparations animals got 24 h before the experiment. […] When narcosis started to influence to rat, there was cannulated left femoral vena for introducing of 10 % CaCl2 and after that there was connected ECG's recoding device (ADlnstrument PowerLab systems) and read ECG from the II lead. […]

isolated rat heart = experiment: Isolated rat heart infarction model; assay type: in vivo, Wistar rats; details: by mouth for 14 days (Meldonium dihydrate 120 mg/kg, orotic acid 100mg/kg, Meldonium orotate 200 mg/kg), 60 minutes occlusion, 150 minute reperfusion
Description: Experiments were conducted on adult male Wistar rats with initial weight of 280-310g. During the experiment, the animals were kept in Standard crates in groups of 8. The feed was a standardized diet R70 (LABFOR, Lactamin AB, Sweden). The room temperature was kept at 21-23°C, relative humidity at 65±10%, 12 hour light/darkness cycle.
Rats weighing approximately 300 g were randomly divided in 4 groups. The first group received saline by mouth (control group), the second group 120 mg/kg Meldonium dihydrate, the third orotic acid 100mg/kg and the fourth group 200 mg/kg Meldonium orotate by mouth for 14 days.
Rats were anesthetized with sodium pentobarbital (60 mg/kg) and heparin (1 IU/g) was administrated concomitantly. Hearts were excised and retrogradely perfused via aorta at a constant pressure of 50 mm Hg, with oxygenated Krebs-Henseleit buffer ( content in mmol/L: NaCl 118, Ca Cl2 2.52, MgCl2 1.64, NaHCO3 24.88, KH2PO4 1.18, glucose 10.0, EDTA 0.05) pH 7.3-7.5 at 37°C.
A 5-0 polypropylene suture (Surgipro II, Syneture) was passed under the left anterior descending coronary artery and threaded through a small plastic tube to permit reversible occlusion of the coronart artery. Coronary flow was measured using an ultrasound flow detector (HSE) and PowerLab 8/30 system from ADlnstruments.
Hearts were adapted for 20 minutes and occlusion was performed for 60 minutes by constricting threads through a plastic tube.
At the end of the 150 minute reperfusion, the left anterior descending coronary artery was relegated and the risk zone was delineated with 0.1 % methylene blue solution in Krebs-Henseleit buffer infused via the aorta root. Hearts were sectioned transversely from the apex to the base of 2 mm thickness and incubated in 1 % triphenyl-tetrazolium chloride in phosphate buffer (pH 7.4, 37°C) for 10 minutes to stain viable tissue red and necrotic tissue white. […] Computerized planemetric analysis of photographs was performed using Image-Pro Plus 4.5.1 software to determine the area at risk (AR) and area of necrosis (AN) expressed as percentage of the left ventricle (LV). […]

Row | Compound | Fatal outcome (rats) | Infarct size, % of control (isolated rat heart; IS = AN/AR x 100) | Fatal outcome (rats; dihydrate) | Infarct size, % of control (isolated rat heart; IS = AN/AR x 100, dihydrate)
1 | C[N+](C)(C)NCCC(=O)[O-] [Meldonium orotate, 3-(2,2,2-trimethylhydrazinium) propionate orotate] | no lethal cases and 0/8 | 49.1±6.1***^,#,& % of control | – | –
2 | O=C(O)c1cc(=O)[nH]c(=O)[nH]1 [Orotic acid] | – | 75.0±7.7 % of control | – | –
3 | C[N+](C)(C)NCCC(=O)[O-] [Meldonium dihydrate, 3-(2,2,2-Trimethylhydrazinium) propionate dihydrate] | – | – | 2/8 | 76.9±5.9 % of control
